Structures are written as SMILES. Where “and” joins values, the source holds several entries; their conditions need not be identical. Equal entries are not always repeated. Calls of active or inactive are those of the source. Where only a bound is given, the exact number is not on record here.

In one experiment the target is SRSF protein kinase 1 (Homo sapiens, UniProt Q96SB4). The experiment is classed as functional.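 Further: measured as one member of a kinome-wide kinase profiling panel.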
Experiment [1] concerns the target BDNF/NT-3 growth factors receptor (Homo sapiens, UniProt Q16620). The experiment is classed as functional.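 Further: NTRK2 measured as one member of a broad kinome-wide kinase profiling panel.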
Experiment [2] addresses Interleukin-1 receptor-associated kinase 4 (Homo sapiens, UniProt Q9NWZ3). The experiment is classed as functional.
Experiment [3] deals with Mast/stem cell growth factor receptor Kit (Homo sapiens, UniProt P10721). The experiment is classed as functional.
Experiment [4] deals with Tyrosine-protein kinase ABL1 (Homo sapiens, UniProt P00519). The experiment is classed as functional.
Sequence of Tyrosine-protein kinase ABL1 (P00519 whole entry): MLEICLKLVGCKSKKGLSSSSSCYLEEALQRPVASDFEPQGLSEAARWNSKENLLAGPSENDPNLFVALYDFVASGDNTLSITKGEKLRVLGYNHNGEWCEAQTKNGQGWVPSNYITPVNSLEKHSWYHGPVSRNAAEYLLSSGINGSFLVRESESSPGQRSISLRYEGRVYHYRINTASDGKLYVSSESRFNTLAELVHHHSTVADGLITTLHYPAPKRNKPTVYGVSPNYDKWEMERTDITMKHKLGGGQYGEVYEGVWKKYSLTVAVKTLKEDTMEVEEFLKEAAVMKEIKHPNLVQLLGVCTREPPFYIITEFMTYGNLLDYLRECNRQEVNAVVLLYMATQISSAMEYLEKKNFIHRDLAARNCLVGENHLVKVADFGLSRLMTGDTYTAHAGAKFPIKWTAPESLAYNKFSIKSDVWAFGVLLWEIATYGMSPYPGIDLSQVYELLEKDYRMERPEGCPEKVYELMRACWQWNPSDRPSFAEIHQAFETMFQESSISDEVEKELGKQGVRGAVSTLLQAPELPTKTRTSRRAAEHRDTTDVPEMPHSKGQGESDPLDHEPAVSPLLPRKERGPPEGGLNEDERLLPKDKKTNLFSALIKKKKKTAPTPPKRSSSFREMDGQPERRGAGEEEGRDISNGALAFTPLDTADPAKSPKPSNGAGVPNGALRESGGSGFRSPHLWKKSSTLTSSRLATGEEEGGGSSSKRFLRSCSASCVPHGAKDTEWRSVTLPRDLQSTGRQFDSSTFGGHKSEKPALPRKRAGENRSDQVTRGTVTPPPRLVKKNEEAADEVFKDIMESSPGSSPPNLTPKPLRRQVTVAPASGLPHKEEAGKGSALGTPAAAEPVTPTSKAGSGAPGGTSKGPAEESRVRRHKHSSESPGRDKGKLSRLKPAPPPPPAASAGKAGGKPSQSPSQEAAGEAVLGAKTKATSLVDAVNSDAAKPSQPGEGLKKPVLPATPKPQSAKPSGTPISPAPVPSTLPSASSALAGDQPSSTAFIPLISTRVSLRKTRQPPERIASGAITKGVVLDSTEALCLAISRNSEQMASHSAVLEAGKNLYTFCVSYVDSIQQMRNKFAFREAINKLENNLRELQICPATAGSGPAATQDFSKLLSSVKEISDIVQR
Experiment [5] has as its target Calcium/calmodulin-dependent protein kinase type II subunit gamma (Homo sapiens, UniProt Q13555). The experiment is classed as functional.
The target in experiment [6] is Serine/threonine-protein kinase Chk1 (Homo sapiens, UniProt O14757). The experiment is classed as functional.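 Further: measured as one member of a kinome-wide kinase profiling panel.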
Sequence of Serine/threonine-protein kinase Chk1 (O14757 whole entry): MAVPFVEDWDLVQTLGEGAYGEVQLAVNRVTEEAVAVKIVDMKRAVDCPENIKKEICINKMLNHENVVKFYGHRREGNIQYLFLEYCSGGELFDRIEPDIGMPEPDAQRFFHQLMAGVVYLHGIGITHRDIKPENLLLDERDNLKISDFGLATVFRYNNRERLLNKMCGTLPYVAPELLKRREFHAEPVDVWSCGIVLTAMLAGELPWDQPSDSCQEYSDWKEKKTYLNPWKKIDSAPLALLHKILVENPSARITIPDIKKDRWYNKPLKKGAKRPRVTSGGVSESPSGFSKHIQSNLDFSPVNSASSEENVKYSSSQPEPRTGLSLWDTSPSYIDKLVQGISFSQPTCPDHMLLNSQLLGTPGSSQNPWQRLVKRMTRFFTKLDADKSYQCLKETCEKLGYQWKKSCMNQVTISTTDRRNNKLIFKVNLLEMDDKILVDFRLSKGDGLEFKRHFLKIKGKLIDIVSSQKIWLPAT
The target in experiment [7] is cAMP-dependent protein kinase catalytic subunit PRKX (Homo sapiens, UniProt P51817). The experiment is classed as functional.
Experiment [8] deals with Serine/threonine-protein kinase NLK (Homo sapiens, UniProt Q9UBE8). Description: Navigating the Kinome. Panel member name: NLK. The experiment is classed as functional.
The target of experiment [9] is Tyrosine-protein kinase ITK/TSK (Homo sapiens, UniProt Q08881). The experiment is classed as functional.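 Further: affinity for ITK measured as one member of a broad kinase panel profiling binding across the kinome.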
The target in experiment [10] is Mitogen-activated protein kinase kinase kinase kinase 2 (Homo sapiens, UniProt Q12851). The experiment is classed as functional.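 Further: measured as one member of a kinome-wide kinase panel, with MAP4K2 as the panel entry.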
Experiment [11] concerns the target Mitogen-activated protein kinase 1 (Homo sapiens, UniProt P28482). The experiment is classed as functional.
In the next experiment the target is Focal adhesion kinase 1 (Homo sapiens, UniProt Q05397). The experiment is classed as functional.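 Further: measured as one member of a kinome panel.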
Sequence of Focal adhesion kinase 1 (Q05397 whole entry): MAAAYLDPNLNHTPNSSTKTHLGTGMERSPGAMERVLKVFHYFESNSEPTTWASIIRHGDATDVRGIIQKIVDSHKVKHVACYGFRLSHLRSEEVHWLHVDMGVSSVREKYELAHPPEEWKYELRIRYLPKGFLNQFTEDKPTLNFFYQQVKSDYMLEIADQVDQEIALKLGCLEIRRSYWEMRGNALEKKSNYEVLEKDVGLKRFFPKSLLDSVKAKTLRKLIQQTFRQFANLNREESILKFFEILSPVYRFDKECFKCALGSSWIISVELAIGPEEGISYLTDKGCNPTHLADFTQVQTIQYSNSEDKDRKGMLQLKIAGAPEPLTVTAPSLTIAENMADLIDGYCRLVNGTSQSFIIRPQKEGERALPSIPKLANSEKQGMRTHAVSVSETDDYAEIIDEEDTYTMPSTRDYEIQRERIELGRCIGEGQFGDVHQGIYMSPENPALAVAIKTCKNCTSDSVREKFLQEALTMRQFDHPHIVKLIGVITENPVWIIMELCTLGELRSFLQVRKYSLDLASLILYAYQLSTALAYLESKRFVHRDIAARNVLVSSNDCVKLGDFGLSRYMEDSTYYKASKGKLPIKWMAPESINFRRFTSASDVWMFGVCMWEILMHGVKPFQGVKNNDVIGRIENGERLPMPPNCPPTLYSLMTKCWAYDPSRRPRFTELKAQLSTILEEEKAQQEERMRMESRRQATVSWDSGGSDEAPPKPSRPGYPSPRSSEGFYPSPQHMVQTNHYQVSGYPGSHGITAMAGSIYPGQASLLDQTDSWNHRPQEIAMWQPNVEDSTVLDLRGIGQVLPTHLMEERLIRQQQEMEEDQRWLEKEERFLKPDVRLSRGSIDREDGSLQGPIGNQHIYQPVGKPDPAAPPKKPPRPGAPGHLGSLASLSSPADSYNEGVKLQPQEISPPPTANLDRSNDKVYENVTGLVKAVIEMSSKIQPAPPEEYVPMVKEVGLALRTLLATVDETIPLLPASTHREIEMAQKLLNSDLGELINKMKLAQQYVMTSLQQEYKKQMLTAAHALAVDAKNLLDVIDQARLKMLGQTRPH
The target of experiment [12] is T1, Mannose-6-phosphate isomerase (Homo sapiens, UniProt P34949).
T1 sequence (P34949 whole entry): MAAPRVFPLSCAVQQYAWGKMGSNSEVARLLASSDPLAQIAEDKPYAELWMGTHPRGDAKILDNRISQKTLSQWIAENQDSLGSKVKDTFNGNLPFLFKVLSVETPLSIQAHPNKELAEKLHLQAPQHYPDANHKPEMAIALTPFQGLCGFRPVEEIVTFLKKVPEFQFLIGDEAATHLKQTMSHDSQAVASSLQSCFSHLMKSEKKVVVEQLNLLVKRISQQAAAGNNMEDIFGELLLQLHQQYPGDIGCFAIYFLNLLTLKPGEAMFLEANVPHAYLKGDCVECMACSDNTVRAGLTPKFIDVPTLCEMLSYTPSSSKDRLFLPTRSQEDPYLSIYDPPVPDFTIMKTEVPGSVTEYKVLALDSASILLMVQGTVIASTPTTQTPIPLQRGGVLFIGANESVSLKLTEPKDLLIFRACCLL
Description: phosphomannose isomerase inhibition – biochemical, fluorescence intensity, confirmation (AID 1535).

A short description of the next experiment: cells. The experiment is classed as functional.
Experiment [13] can be described thus: Luminescence-based dose response cell-based high throughput screening assay for cytotoxic compounds using the IEC-6 intestinal epithelial cell line. [Related pubchem assays: 1858 (Summary AID.), 1825 (Counterscreen.), 1907 (Confirmation screen.)]. The experiment is classed as functional. Background: Counterscreens check selectivity or assay interference.
For experiment [14], the target named is RNA-editing ligase 1, mitochondrial (Trypanosoma brucei brucei, UniProt P86926). The experiment can be described thus: inhibition of trypanosome RNA editing ligase – biochemical, fluorescence, Trypanosoma brucei, dose response (AID 1117295). The experiment is classed as functional.
Sequence of RNA-editing ligase 1, mitochondrial (P86926 whole entry): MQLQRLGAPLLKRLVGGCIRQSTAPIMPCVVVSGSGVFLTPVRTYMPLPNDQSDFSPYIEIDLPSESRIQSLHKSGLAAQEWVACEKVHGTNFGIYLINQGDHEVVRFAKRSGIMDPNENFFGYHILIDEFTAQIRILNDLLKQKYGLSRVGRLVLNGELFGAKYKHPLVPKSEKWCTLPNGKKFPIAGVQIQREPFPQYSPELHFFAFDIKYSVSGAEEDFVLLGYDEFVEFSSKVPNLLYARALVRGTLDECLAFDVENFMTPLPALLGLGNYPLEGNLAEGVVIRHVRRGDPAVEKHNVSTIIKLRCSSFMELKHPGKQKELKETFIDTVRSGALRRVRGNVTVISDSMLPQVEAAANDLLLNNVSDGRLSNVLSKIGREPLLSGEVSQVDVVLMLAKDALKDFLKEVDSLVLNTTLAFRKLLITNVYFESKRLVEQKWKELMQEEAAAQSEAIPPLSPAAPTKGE
The next experiment addresses T2, Bcl-2-like protein 10 (Homo sapiens, UniProt Q9HD36).
T2 sequence (Q9HD36 whole entry): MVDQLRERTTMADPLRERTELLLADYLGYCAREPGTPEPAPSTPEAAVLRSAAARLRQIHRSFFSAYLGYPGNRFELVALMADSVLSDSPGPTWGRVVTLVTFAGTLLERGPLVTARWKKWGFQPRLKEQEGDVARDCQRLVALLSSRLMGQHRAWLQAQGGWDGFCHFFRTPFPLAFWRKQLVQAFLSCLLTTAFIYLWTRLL
Description: Bcl-B/TR3 peptide binding disruption – biochemical, fluorescence polarization, FITC-TR3 peptide, selectivity assay for Bfl-1 inhibitor project, primary screen (AID 748). (In general: Fluorescence polarisation rises when a labelled molecule tumbles more slowly, as on binding a larger partner.)

For the next experiment, the target named is T3, Aminopeptidase N (Plasmodium falciparum FcB1/Columbia, UniProt O96935).
T3 sequence (O96935 whole entry): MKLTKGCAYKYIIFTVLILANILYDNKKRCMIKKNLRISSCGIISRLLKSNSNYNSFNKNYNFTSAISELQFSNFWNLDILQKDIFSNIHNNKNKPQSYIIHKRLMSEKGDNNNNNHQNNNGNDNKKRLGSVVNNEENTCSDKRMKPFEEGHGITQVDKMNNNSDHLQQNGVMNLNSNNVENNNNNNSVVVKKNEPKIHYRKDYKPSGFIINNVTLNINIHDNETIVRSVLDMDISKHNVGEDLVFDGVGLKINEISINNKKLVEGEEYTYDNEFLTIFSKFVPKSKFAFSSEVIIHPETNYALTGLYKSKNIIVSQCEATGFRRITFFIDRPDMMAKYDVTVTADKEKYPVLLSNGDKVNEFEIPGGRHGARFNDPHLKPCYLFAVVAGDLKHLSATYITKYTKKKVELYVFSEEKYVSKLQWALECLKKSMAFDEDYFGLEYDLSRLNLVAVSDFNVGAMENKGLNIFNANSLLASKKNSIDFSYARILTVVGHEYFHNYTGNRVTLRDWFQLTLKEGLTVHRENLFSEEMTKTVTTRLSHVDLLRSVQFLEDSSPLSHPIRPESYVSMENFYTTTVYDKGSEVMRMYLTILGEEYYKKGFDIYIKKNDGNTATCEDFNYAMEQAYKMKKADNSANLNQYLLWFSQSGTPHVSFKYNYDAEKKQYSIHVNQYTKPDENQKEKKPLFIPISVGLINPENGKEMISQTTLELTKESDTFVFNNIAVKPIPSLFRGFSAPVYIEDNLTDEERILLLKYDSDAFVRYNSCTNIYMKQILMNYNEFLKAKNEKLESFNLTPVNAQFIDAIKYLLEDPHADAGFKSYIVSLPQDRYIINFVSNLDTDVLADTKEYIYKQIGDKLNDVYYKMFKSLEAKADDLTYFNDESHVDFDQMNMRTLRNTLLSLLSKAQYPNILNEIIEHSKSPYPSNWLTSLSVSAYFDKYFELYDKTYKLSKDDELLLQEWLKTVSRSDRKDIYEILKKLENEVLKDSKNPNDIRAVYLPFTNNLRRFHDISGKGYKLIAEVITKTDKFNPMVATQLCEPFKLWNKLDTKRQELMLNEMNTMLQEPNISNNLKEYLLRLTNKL
Description: malaria alanyl aminopeptidase activity blockers – biochemical, fluorogenic H-Leu-NHMec substrate, 1536-well (AID 1445). Details: species or system Plasmodium falciparum 3D7, 3D7.

The target of experiment [15] is Serine/threonine-protein phosphatase (Candida dubliniensis (strain CD36 / CBS 7987 / NCPF 3949 / NRRLY-17841) (Yeast), UniProt B9W6M3). Description: blockers of CaCl2-induced CDRE-lacZ signaling – S. cerevisiae, luminescence, secondary, dose response (AID 2388).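 Further: yeast reporter cells carrying a calcineurin-responsive lacZ construct stimulated with calcium chloride; luminescent beta-galactosidase reporter signal in whole cells rather than isolated phosphatase activity; potency for inhibition where a drop in reporter signal means calcineurin blockade.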 The experiment is classed as functional, cell-based.

Sequence of BDNF/NT-3 growth factors receptor (Q16620 whole entry): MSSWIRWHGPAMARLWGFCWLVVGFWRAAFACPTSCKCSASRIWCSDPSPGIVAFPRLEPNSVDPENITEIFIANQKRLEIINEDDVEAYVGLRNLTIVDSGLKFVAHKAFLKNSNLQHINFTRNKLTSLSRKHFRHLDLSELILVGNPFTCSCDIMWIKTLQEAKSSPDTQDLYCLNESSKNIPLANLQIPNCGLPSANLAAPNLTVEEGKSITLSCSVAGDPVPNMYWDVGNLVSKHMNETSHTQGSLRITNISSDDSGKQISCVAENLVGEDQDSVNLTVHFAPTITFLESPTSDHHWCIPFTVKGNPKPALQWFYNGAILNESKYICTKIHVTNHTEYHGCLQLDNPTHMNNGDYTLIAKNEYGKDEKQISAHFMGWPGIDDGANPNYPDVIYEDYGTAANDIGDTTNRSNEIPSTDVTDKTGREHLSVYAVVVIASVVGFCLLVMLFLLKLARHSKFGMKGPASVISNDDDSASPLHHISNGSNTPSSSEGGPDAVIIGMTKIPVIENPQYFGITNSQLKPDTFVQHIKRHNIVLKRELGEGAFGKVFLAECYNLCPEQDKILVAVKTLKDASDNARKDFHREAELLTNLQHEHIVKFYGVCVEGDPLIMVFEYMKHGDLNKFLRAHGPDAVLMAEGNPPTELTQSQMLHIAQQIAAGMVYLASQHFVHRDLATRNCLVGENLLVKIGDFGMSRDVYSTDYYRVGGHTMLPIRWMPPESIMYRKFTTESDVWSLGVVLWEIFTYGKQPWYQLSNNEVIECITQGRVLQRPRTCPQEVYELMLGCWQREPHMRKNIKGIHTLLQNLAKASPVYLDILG
Sequence of Interleukin-1 receptor-associated kinase 4 (Q9NWZ3 whole entry): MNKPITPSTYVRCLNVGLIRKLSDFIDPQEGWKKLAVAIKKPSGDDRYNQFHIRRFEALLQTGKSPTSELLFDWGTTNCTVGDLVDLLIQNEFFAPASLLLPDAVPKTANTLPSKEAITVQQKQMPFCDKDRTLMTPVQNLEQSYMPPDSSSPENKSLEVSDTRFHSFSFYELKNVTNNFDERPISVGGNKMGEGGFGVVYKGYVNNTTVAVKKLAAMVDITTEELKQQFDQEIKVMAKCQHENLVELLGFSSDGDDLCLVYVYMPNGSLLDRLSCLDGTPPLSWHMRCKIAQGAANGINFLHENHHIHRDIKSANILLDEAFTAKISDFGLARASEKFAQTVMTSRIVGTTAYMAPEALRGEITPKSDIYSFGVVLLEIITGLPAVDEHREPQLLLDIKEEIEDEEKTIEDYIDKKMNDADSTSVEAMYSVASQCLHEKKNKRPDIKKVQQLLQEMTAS
Sequence of SRSF protein kinase 1 (Q96SB4 whole entry): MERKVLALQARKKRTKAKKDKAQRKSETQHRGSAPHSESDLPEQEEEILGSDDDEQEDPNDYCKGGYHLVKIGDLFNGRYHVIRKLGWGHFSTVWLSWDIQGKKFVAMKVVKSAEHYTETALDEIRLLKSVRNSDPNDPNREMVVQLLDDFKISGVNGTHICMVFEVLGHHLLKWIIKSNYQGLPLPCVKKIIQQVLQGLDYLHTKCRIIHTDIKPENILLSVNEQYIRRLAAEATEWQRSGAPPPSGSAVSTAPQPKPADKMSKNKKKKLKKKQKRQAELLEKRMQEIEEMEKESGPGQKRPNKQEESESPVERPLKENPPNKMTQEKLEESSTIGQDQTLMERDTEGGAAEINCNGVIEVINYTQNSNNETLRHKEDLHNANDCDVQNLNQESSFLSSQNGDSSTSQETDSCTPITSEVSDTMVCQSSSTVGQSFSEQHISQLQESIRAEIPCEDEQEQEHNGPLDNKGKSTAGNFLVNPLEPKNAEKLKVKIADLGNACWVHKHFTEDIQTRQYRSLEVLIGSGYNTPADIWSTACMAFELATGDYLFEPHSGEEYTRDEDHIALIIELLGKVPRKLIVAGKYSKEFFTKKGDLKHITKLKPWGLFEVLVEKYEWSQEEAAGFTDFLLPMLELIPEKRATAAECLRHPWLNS

The term Ki denotes a dissociation constant, usually derived from enzyme kinetics or from competition with a known ligand. As for `Cc1cccc(NC(=O)Nc2ccc3c(c2)CCc2sc4ncnc(N)c4c2-3)c1`, the Ki on SRSF protein kinase 1 was 3160 nM (active); in experiment [1], 200 nM (active); in experiment [2], > 10000 nM (inactive); in experiment [3], > 1260 nM (inactive); in experiment [4], > 631 nM (inactive); in experiment [5], > 6310 nM (inactive). In addition, the Ki in [6] was > 7940 nM (inactive); in [7], > 1580 nM (inactive); in [8] it was 20 nM (active); in experiment [9] it was > 1580 nM (inactive); in experiment [10] it was 2000 nM (active); in [11], > 7940 nM (inactive). The Ki at Focal adhesion kinase 1 was 631 nM (active).
For orientation: IC50 means the point on the concentration scale where inhibition reaches its midpoint. For the compound `Cc1ccc(-n2sc3ccccc3c2=O)cc1`, the IC50 in [12] is 7.04 µM (active) and 4.06 µM (active); in “cells”, 22400 nM (active).
With `CCC(=O)NC(c1ccc(C)cc1)c1ccc2cccnc2c1O` (stereo not given), the half-inhibitory concentration (IC50) in [13] was 1620 nM (active).
Consider `N/C(=N\N=C/c1ccc(-c2ccc(O)c(C(=O)O)c2)o1)N[N+](=O)[O-]`, for which the IC50 in [14] was 21200 nM (inactive); at Bcl-2-like protein 10, 2820 nM (active); at Aminopeptidase N, 10200 nM (active).
A word on the EC50: it is the concentration needed to bring the measured effect to its halfway point. With `CCCC(=O)NC(c1ccc(Cl)cc1)c1ccc2cccnc2c1O` (stereo not given), the EC50 in [15] was 45400 nM (active).
